Patent publication US20240309038A1, “NOVEL GALACTOSIDE INHIBITOR OF GALECTINS” (GALECTO BIOTECH AB, priority 2020, published 2024)
pKd: −log10 of the molar value.

Target: Gal-3 (Homo sapiens, UniProt P17931)
Assay: Fluorescence anisotropy assay, inhibition of galectin / fluorescein tagged saccharide probe interaction
Assay type: binding
Protocol: The affinity of Example 1-59 for galectins were determined by a fluorescence anisotropy assay where the compound was used as an inhibitor of the interaction between galectin and a fluorescein tagged saccharide probe as described Sörme, P., Kahl-Knutsson, B., Huflejt, M., Nilsson, U. J., and Leffler H. (2004) Fluorescence polarization as an analytical tool to evaluate galectin-ligand interactions. Anal. Biochem. 334: 36-47, (Sarme et al., 2004)

Sequence of Gal-3 (P17931 whole entry, species assumed): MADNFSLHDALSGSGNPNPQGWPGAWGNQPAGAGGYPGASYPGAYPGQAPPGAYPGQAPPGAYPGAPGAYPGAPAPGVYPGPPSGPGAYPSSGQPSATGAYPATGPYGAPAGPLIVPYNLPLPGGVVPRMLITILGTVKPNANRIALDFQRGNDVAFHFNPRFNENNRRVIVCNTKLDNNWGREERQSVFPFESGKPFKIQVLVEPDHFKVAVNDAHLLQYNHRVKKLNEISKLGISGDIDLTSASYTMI

| Structure (SMILES) | pKd |
| --- | --- |
| Cc1nc([C@@H]2OC(CO)[C@H](O)C(n3cc(-c4cc(F)c(F)c(F)c4)cn3)C2O)n(-c2cc(Cl)cnc2C#N)n1 (stereo in doubt) [Example 21, 5-Chloro-2-cyano-3-{5-{3-deoxy-3-[4-(3,4,5-trifluorophenyl)-1H-1,2-pyrazol-1-yl]-β-D-galactopyranosyl}-3-methyl-1H-1,2,4-triazol-1-yl}pyridine] | 7.09 |
| Cc1nc([C@@H]2OC(CO)[C@H](O)C(n3cc(-c4cc(F)c(F)c(F)c4)cn3)C2O)n(-c2cc3sc(C)nc3cc2C#N)n1 (stereo in doubt) [Example 44, 5-Cyano-6-{5-{3-deoxy-3-[4-(3,4,5-trifluorophenyl)-1H-1,2-pyrazol-1-yl]-β-D-galactopyranosyl}-3-methyl-1H-1,2,4-triazol-1-yl}-2-methylbenzothiazole] | 7.77 |
| Cc1nc([C@@H]2OC(CO)[C@H](O)C(n3cc(-c4cc(F)c(F)c(F)c4)cn3)C2O)n(-c2ccc3nc(C)sc3c2Cl)n1 (stereo in doubt) [Example 40, 7-Chloro-6-{5-{3-deoxy-3-[4-(3,4,5-trifluorophenyl)-1H-1,2-pyrazol-1-yl]-β-D-galactopyranosyl}-3-methyl-1H-1,2,4-triazol-1-yl}-2-methylbenzothiazole] | 6.59 |
| Cc1nc([C@@H]2OC(CO)[C@H](O)C(n3cc(-c4cccc(Cl)c4)cn3)C2O)n(-c2cc(Cl)ccc2C(F)(F)F)n1 (stereo in doubt) [Example 58, 1-{5-{3-[4-(3-Chlorophenyl)-1H-1,2-pyrazol-1-yl]-3-deoxy-β-D-galactopyranosyl}-3-methyl-1H-1,2,4-triazol-1-yl}-5-chloro-2-(trifluoromethyl)benzene] | 7.01 |
| Cc1nc([C@@H]2OC(CO)[C@H](O)C(n3cc(-c4cc(F)c(F)c(F)c4)cn3)C2O)n(-c2cc(Br)cnc2C(F)(F)F)n1 (stereo in doubt) [Example 25, 5-Bromo-3-{5-{3-deoxy-3-[4-(3,4,5-trifluorophenyl)-1H-1,2-pyrazol-1-yl]-β-D-galactopyranosyl}-3-methyl-1H-1,2,4-triazol-1-yl}-2-(trifluoromethyl)pyridine] | 7.96 |
| Cc1nc([C@@H]2OC(CO)[C@H](O)C(n3cc(-c4cc(C)c(Cl)cn4)cn3)C2O)n(-c2cc(Cl)ccc2C(F)(F)F)n1 (stereo in doubt) [Example 16, 1-{5-{3-[4-(5-Chloro-4-methylpyridin-2-yl)-1H-1,2-pyrazol-1-yl]-3-deoxy-β-D-galactopyranosyl}-3-methyl-1H-1,2,4-triazol-1-yl}-5-chloro-2-(trifluoromethyl)benzene] | 6.85 |

Second part, the compound after the results:

| pKd | Structure (SMILES) |
| --- | --- |
| 7.27 | Cc1nc([C@@H]2OC(CO)[C@H](O)C(n3cc(-c4cc(F)c(F)c(F)c4)c(-c4ccccc4F)n3)C2O)n(-c2cc(Cl)ccc2C(F)(F)F)n1 (stereo in doubt) [Example 48, 5-Chloro-1-{5-{3-deoxy-3-[4-(3,4,5-trifluorophenyl)-3-(2-fluorophenyl)-1H-1,2-pyrazol-1-yl]-β-D-galactopyranosyl}-3-methyl-1H-1,2,4-triazol-1-yl}-2-(trifluoromethyl)benzene] |
| 7.29 | Cc1nc([C@@H]2OC(CO)[C@H](O)C(n3cc(-c4ccc(Cl)cc4)cn3)C2O)n(-c2cc(Cl)ccc2C(F)(F)F)n1 (stereo in doubt) [Example 59, 1-{5-{3-[4-(4-Chlorophenyl)-1H-1,2-pyrazol-1-yl]-3-deoxy-β-D-galactopyranosyl}-3-methyl-1H-1,2,4-triazol-1-yl}-5-chloro-2-(trifluoromethyl)benzene] |
| 7.70 | COc1ccccc1-c1nn(C2C(O)[C@H](c3nc(C)nn3-c3cc(Cl)ccc3C(F)(F)F)OC(CO)[C@@H]2O)cc1-c1cc(F)c(F)c(F)c1 (stereo in doubt) [Example 52, 5-Chloro-1-{5-{3-deoxy-3-[4-(3,4,5-trifluorophenyl)-3-(2-methoxyphenyl)-1H-1,2-pyrazol-1-yl]-β-D-galactopyranosyl}-3-methyl-1H-1,2,4-triazol-1-yl}-2-(trifluoromethyl)benzene] |
